Where two headings read alike, the source gives them in different places.
Key:
[1] = molecular target: T1, PDE4B: The catalytic domain of human PDE4B from S152-S528 (Homo sapiens, UniProt Q07343); test: PDE4 IC50 determination by Scintillation Proximity Assay, PDE4B; type: biochemical
T1 construct: His6 (N); thrombin cleavage site (N); made in house; host or cells: E. coli
Procedure, shortened: (§1)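 Scintillation counts reflected [^3H]AMP captured on yttrium silicate SPA beads after enzyme hydrolysed [^3H]cAMP for 30 min at 30°. PDE4B was used at 80 ng/ml and PDE4D at 4 ng/ml. IC50 values came from non-linear regression.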

PDE4D = molecular target: T2, PDE4D (Homo sapiens, UniProt Q08499); test: PDE4 IC50 determination by Scintillation Proximity Assay, PDE4D; type: biochemical
T2 construct: PDE4D: The catalytic domain of human PDE4B from S3 16-V692; His6 (N); thrombin cleavage site (N); made in house; host or cells: E. coli
T2 sequence (Q08499 380-756): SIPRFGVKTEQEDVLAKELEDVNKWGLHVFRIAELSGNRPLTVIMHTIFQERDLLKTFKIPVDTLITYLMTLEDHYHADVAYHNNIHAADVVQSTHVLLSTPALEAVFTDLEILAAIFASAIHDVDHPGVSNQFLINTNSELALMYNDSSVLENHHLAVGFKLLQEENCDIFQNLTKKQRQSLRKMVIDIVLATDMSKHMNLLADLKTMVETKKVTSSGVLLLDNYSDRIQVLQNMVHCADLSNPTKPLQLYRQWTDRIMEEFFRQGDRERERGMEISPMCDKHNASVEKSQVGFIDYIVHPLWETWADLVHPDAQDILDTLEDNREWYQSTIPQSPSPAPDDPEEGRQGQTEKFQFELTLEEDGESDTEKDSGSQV
Procedure, shortened: as §1

[2] = second part of Table 2B (2-23 to 2-103), column 3, column is PDE4B in first part, read-out: IC 50 vs. indicated assay h TNFα
[3] = second part of Table 2B (2-23 to 2-103), column 5, column is PDE4D in first part, read-out: IC 50 vs. indicated assay h TNFα

T1 sequence (Q07343 with tags, fused parts or gaps): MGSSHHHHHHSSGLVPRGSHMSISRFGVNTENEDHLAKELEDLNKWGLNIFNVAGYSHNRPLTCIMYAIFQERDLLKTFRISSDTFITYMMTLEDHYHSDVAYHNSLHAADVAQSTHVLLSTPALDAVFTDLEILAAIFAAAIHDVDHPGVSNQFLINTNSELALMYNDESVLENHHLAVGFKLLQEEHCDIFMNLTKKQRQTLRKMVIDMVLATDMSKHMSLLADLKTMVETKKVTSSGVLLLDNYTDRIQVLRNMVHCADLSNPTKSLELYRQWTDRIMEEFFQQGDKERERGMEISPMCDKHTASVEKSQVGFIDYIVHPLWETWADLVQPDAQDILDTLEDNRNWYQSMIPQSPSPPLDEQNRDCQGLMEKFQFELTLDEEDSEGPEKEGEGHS

IC50 [1, 2] [µM]	IC50 (PDE4D; [3]) [µM]	IC50 [1] [µM]	IC50 (PDE4D) [µM]	Compound
< 10	> 10	–	–	Nc1nc(Nc2ccccn2)sc1C(=O)c1ccccc1 [Compound 2-73, [4-Amino-2-(pyridin-2-ylamino)-thiazol-5-yl]-phenyl-methanone]
> 10	< 10	–	–	Nc1nc(Nc2ccc(Oc3ccccc3)nc2)sc1C(=O)c1ccccc1 [Compound 2-74, [4-Amino-2-(6-phenoxy-pyridin-3-ylamino)-thiazol-5-yl]-phenyl-methanone]
> 10	> 10	–	–	Nc1nc(NC2CCCC2)sc1C(=O)c1ccccc1Cl [Compound 2-75, (4-Amino-2-cyclopentylamino-thiazol-5-yl)-(2-chloro-phenyl)-methanone]
< 10	< 10	–	–	Nc1nc(NC2CC2)sc1C(=O)c1ccc(Oc2ccccc2)cc1 [Compound 2-77, (4-Amino-2-cyclopropylamino-thiazol-5-yl)-(4-phenoxy-phenyl)-methanone]
–	–	< 10	< 10	COc1ccc(C(=O)c2sc(NC3CCCC3)nc2N)cc1 [Compound 2-78, (4-Amino-2-cyclopentylamino-thiazol-5-yl)-(4-methoxy-phenyl)-methanone]
< 10	< 10	–	–	COc1ccc(C(=O)c2sc(NC3CC3)nc2N)cc1 [Compound 2-79, (4-Amino-2-cyclopropylamino-thiazol-5-yl)-(4-methoxy-phenyl)-methanone]
< 10	< 10	–	–	Nc1nc(NC2CC2)sc1C(=O)c1cccc(Cl)c1 [Compound 2-81, (4-Amino-2-cyclopropylamino-thiazol-5-yl)-(3-chloro-phenyl)-methanone]
< 10	< 10	–	–	Nc1nc(NC2CCCC2)sc1C(=O)c1cccc(C(F)(F)F)c1 [Compound 2-82, (4-Amino-2-cyclopentylamino-thiazol-5-yl)-(3-trifluoromethyl-phenyl)-methanone]
< 10	< 10	–	–	Nc1nc(NC2CCCC2)sc1C(=O)c1ccc(OC(F)F)cc1 [Compound 2-84, (4-Amino-2-cyclopentylamino-thiazol-5-yl)-(4-difluoromethoxy-phenyl)-methanone]
< 10	> 10	–	–	Nc1nc(NC2CC2)sc1C(=O)c1ccc(OC(F)F)cc1 [Compound 2-85, (4-Amino-2-thiazol-5-yl)-(4-difluoromethoxy-phenyl)-methanone]
< 10	< 10	–	–	COc1cccc(C(=O)c2sc(NC3CCCC3)nc2N)c1 [Compound 2-86, (4-Amino-2-cyclopentylamino-thiazol-5-yl)-(3-methoxy-phenyl)-methanone]
< 10	< 10	–	–	COc1cccc(C(=O)c2sc(NC3CC3)nc2N)c1 [Compound 2-87, (4-Amino-2-cyclopropylamino-thiazol-5-yl)-(3-methoxy-phenyl)-methanone]
< 10	< 10	–	–	Nc1nc(NC2CC2)sc1C(=O)c1cccc(C(F)(F)F)c1 [Compound 2-88, (4-Amino-2-cyclopropylamino-thiazol-5-yl)-(3-trifluoromethyl-phenyl)-methanone]
< 10	< 10	–	–	Nc1nc(Nc2ccccc2)sc1C(=O)C1CCCC1 [Compound 2-89, (4-Amino-2-phenylamino-thiazol-5-yl)-cyclopentyl-methanone]
< 10	< 10	–	–	Nc1nc(Nc2ccccc2)sc1C(=O)C1CCCCC1 [Compound 2-90, (4-Amino-2-phenylamino-thiazol-5-yl)-cyclohexyl-methanone]
< 10	> 10	–	–	Nc1nc(Nc2ccc(Cl)cc2)sc1C(=O)C1CCCCC1 [Compound 2-91, [4-Amino-2-(4-chloro-phenylamino)-thiazol-5-yl]-cyclohexyl-methanone]
> 10	> 10	–	–	Nc1nc(Nc2c(Cl)cccc2Cl)sc1C(=O)CC1CCCC1 [Compound 2-94, 1-[4-Amino-2-(2,6-dichloro-phenylamino)-thiazol-5-yl]-2-cyclopentyl-ethanone]
< 10	> 10	–	–	Nc1nc(Nc2ccccc2)sc1C(=O)C1CC1 [Compound 2-95, (4-Amino-2-phenylamino-thiazol-5-yl)-cyclopropyl-methanone]
< 10	< 10	–	–	Nc1nc(Nc2c(Cl)cccc2Cl)sc1C(=O)C1CC1 [Compound 2-96, [4-Amino-2-(2,6-dichloro-phenylamino)-thiazol-5-yl]-cyclopropyl-methanone]
< 10	< 10	–	–	Nc1nc(Nc2ccc(Oc3ccccc3)cc2)sc1C(=O)C1CC1 [Compound 2-97, [4-Amino-2-(4-phenoxy-phenylamino)-thiazol-5-yl]-cyclopropyl-methanone]
< 10	< 10	–	–	Nc1nc(Nc2ccccc2F)sc1C(=O)C1CCCC1 [Compound 2-98, [4-Amino-2-(2-fluoro-phenylamino)-thiazol-5-yl]-cyclopentyl-methanone]

The next lines start with the compound.

Compound	IC50 [1, 2] [µM]	IC50 (PDE4D; [3]) [µM]	IC50 [1] [µM]	IC50 (PDE4D) [µM]
N#Cc1cccc(Nc2nc(N)c(C(=O)c3cccc(Cl)c3)s2)c1 [Compound 2-52, 3-[4-Amino-5-(3-chloro-benzoyl)-thiazol-2-ylamino]-benzonitrile]	< 10	< 10	–	–
Nc1nc(Nc2ccc(Oc3ccccc3)cc2)sc1C(=O)c1cccc(Cl)c1 [Compound 2-53, [4-Amino-2-(4-phenoxy-phenylamino)-thiazol-5-yl]-(3-chloro-phenyl)-methanone]	< 10	< 10	–	–
Nc1nc(Nc2ccccc2F)sc1C(=O)c1cccc(C(F)(F)F)c1 [Compound 2-54, [4-Amino-2-(2-fluoro-phenylamino)-thiazol-5-yl]-(3-trifluoromethyl-phenyl)-methanone]	< 10	< 10	–	–
COc1ccc(Nc2nc(N)c(C(=O)c3cccc(C(F)(F)F)c3)s2)cc1 [Compound 2-55, [4-Amino-2-(4-methoxy-phenylamino)-thiazol-5-yl]-(3-trifluoromethyl-phenyl)-methanone]	< 10	< 10	–	–
N#Cc1cccc(Nc2nc(N)c(C(=O)c3cccc(C(F)(F)F)c3)s2)c1 [Compound 2-56, 3-[4-Amino-5-(3-trifluoromethyl-benzoyl)-thiazol-2-ylamino]-benzonitrile]	< 10	< 10	–	–
Nc1nc(Nc2ccc(Oc3ccccc3)cc2)sc1C(=O)c1cccc(C(F)(F)F)c1 [Compound 2-57, [4-Amino-2-(4-phenoxy-phenylamino)-thiazol-5-yl]-(3-trifluoromethyl-phenyl)-methanone]	< 10	> 10	–	–
Nc1nc(Nc2ccccc2F)sc1C(=O)c1ccc(OC(F)F)cc1 [Compound 2-58, [4-Amino-2-(2-fluoro-phenylamino)-thiazol-5-yl]-(4-difluoromethoxy-phenyl)-methanone]	< 10	< 10	–	–
COc1ccc(Nc2nc(N)c(C(=O)c3ccc(OC(F)F)cc3)s2)cc1 [Compound 2-59, [4-Amino-2-(4-methoxy-phenylamino)-thiazol-5-yl]-(4-difluoromethoxy-phenyl)-methanone]	< 10	< 10	–	–
N#Cc1cccc(Nc2nc(N)c(C(=O)c3ccc(OC(F)F)cc3)s2)c1 [Compound 2-60, 3-[4-Amino-5-(4-difluoromethoxy-benzoyl)-thiazol-2-ylamino]-benzonitrile]	< 10	> 10	–	–
COc1cccc(C(=O)c2sc(Nc3ccccc3F)nc2N)c1 [Compound 2-62, [4-Amino-2-(2-fluoro-phenylamino)-thiazol-5-yl]-(3-methoxy-phenyl)-methanone]	< 10	< 10	–	–
COc1ccc(Nc2nc(N)c(C(=O)c3cccc(OC)c3)s2)cc1 [Compound 2-63, [4-Amino-2-(4-methoxy-phenylamino)-thiazol-5-yl]-(3-methoxy-phenyl)-methanone]	< 10	< 10	–	–
COc1cccc(C(=O)c2sc(Nc3ccc(Oc4ccccc4)cc3)nc2N)c1 [Compound 2-65, [4-Amino-2-(4-phenoxy-phenylamino)-thiazol-5-yl]-(3-methoxy-phenyl)-methanone]	< 10	< 10	–	–
Nc1nc(Nc2ccc(Oc3ccccc3)cc2)sc1C(=O)c1ccccc1Cl [Compound 2-66, [4-Amino-2-(4-phenoxy-phenylamino)-thiazol-5-yl]-(2-chloro-phenyl)-methanone]	< 10	> 10	–	–
Nc1nc(NCc2ccccc2)sc1C(=O)c1ccccc1 [Compound 2-68, (4-Amino-2-benzylamino-thiazol-5-yl)-phenyl-methanone]	< 10	< 10	–	–
COc1cccc(C(=O)c2sc(NC(C)C)nc2N)c1 [Compound 2-69, (4-Amino-2-isopropylamino-thiazol-5-yl)-(3-methoxy-phenyl)-methanone]	< 10	> 10	–	–
Nc1nc(Nc2cccc3ccccc23)sc1C(=O)c1ccccc1 [Compound 2-70, [4-Amino-2-(naphthalen-1-ylamino)-thiazol-5-yl]-phenyl-methanone]	< 10	< 10	–	–
Nc1nc(Nc2cccnc2)sc1C(=O)c1ccccc1 [Compound 2-71, [4-Amino-2-(pyridin-3-ylamino)-thiazol-5-yl]-phenyl-methanone]	< 10	< 10	–	–
COc1ccc(C(=O)c2sc(Nc3cccnc3)nc2N)cc1 [Compound 2-72, [4-Amino-2-(pyridin-3-ylamino)-thiazol-5-yl]-(4-methoxy-phenyl)-methanone]	< 10	< 10	–	–

From US7585859B2, “PDE4B inhibitors and uses therefor” (Plexxikon, Inc., priority 2004, dated 2009)
